According to EP0346744A1, “Condensed diazepinones, process for their preparation and medicaments containing them” (Dr. Karl Thomae GmbH, priority 1988, dated 1989):
Structures can show the parent of a compound that is named as a salt.

How the values were obtained:
[1] = test system: M2; assay: Inhibition of vagal-stimulation bradycardia in the rat (M1/M2 selectivity, heart); assay type: in vivo, Ratte
Description: (§1) 1. M,- M2-Selektivität an der Ratte
(§2) Die angewandte Methode wurde von Hammer und Giachetti (Life Sciences 31, 2991-2998 (1982)) beschrieben. 5 Minuten nach intravenöser Injektion steigender Dosen der Substanz wurden entweder der rechte Vagus elektrisch stimuliert (Frequenz: 25 Hz; Pulsbreite: 2ms; Reizdauer: 30s; Voltzahl: supramaximal) oder 0,3 mg kg McN-A-343 in männliche THOM-Ratten intravenös injiziert. Die durch Vagusstimulation hervorgeru fene Bradykardie und der durch McN-A-343 verursachte Blutdruckanstieg wurden bestimmt. Die Dosis der Substanzen, die entweder die vagale Bradykardie (M2) oder den Blutdruckanstieg (Mi) um 50% verminderte, wurde graphisch ermittelt. Ergebnisse siehe Tabelle II.

[2] = test system: M1; assay: Inhibition of McN-A-343-induced blood pressure rise in the rat (M1/M2 selectivity); assay type: in vivo, Ratte
Description: as §1, §2

[3] = test system: Herzfrequenz; assay: Inhibition of acetylcholine effect on heart rate of the guinea pig; assay type: in vivo, Meerschweinchen; details: for ED50: Cavia porcellus, 5 min, anaesthetised guinea pig, 10 µg/kg acetylcholine 5 min after test substance, heart rate by ECG
Description: (§3) 3. Hemmung der Acetylcholinwirkung auf Blase, Bronchien und Herzfrequenz des Meerschweinchens
(§4) Am narkotisierten Meerschweinchen wurden 5 Minuten nach Gabe der Prüfsubstanz 10 µg/kg Acetylcholin intravenös als auch gleichzeitig intraarteriell injiziert. Dabei wurde die Herzfrequenz durch extrakorporale Ableitung des EKG, der Ausatemwiderstand nach Konzett-Rößler und die Kontraktion der freigelegten Harnblase direkt registriert. Für die Hemmung der Acetylcholinwirkung an den untersuchten Organen wurden Dosis-Wirkungskurven aufgenommen und daraus -log EDso-Werte bestimmt. Ergebnisse siehe Tabelle III.

[4] = test system: Bronchien; assay: Inhibition of acetylcholine effect on bronchi of the guinea pig; assay type: in vivo, Meerschweinchen; details: for ED50: Cavia porcellus, 5 min, anaesthetised guinea pig, 10 µg/kg acetylcholine 5 min after test substance, expiratory resistance (Konzett-Rößler), read-out: -log ED50 Bronchien (converted)
Description: as §3, §4

[5] = test system: Blase; assay: Inhibition of acetylcholine effect on bladder of the guinea pig; assay type: in vivo, Meerschweinchen; details: for ED50: Cavia porcellus, 5 min, anaesthetised guinea pig, 10 µg/kg acetylcholine 5 min after test substance, contraction of exposed urinary bladder, read-out: -log ED50 Blase (converted)
Description: as §3, §4

[6] = test system: Speichelsekretion; assay: Inhibition of pilocarpine-induced salivation in the rat; assay type: in vivo, Ratte; details: iv; urethane-anaesthetised rat, i.v.; salivation induced by 2 mg/kg pilocarpine s.c.; dose reducing saliva volume by 50%; read-out: -log ED50 Salivation (converted)
Description: 2. Speichselsekretionshemmende Wirkung an der Ratte
Nach Lavy und Mulder (Arch. int. Pharmacodyn. 178. 437-445, (1969)) erhielten mit 1,2 glkg Urethan narkotisierte männliche THOM-Ratten steigende Dosen der Substanz i.v.. Die Speichelsekretion wurde durch s.c. Gabe von 2 mg kg Pilocarpin ausgelöst. Der Speichel wurde mit Fließpapier aufgesaugt, die von ihm eingenommene Fläche alle 5 Minuten planimetrisch bestimmt. Die Dosis der Substanz, die das Speichelvolumen um 50% verminderte, wurde graphisch ermittelt. Ergebnisse siehe Tabelle II.

[7] = rat, i.v., 5 min before electrical stimulation of the right vagus, dose reducing vagal bradycardia (M2) by 50%
[8] = rat, i.v., 5 min before 0,3 mg/kg McN-A-343 i.v., dose reducing blood pressure rise (M1) by 50%

SMILES	-log ED50 Herz ([1]; in vivo, iv)	-log ED50 Blutdruck ([2]; in vivo)	-log ED50 Herz ([3]; in vivo)	-log ED50 Bronchien ([4]; in vivo)	-log ED50 Blase ([5]; in vivo)	-log ED50 Herz [1, 7]	-log ED50 Blutdruck [2, 8]	ED50 [6] [µmol/kg]	ED50 [3] [µmol/kg]	ED50 [4] [µmol/kg]	ED50 [5] [µmol/kg]
CN1C2CCC1CC(OC(=O)C(CO)c1ccccc1)C2 (racemic) [G, Atropin, reference compound]	7,94 Mkg^-1	7,34 Mkg^-1	7,70 Molkg^-1	7,96 Molkg^-1	7,03 Molkg^-1						
CN(CCC1CCCCN1C)CC(=O)N1c2ccccc2C(=O)Nc2cccnc21 (centres unmarked) [A]						7,48 Mkg^-1	6,34 Mkg^-1	1.23	0.0178	0.0457	0.12
CN(CCC1CCCCCN1C)CC(=O)N1c2ccccc2C(=O)Nc2cccnc21 (centres unmarked) [B, 5.11-Dihydro-11-[[[2-(1-methyl-hexahydro-1 H-2-azepinyi)ethyl]methylamino]acetyl]-6H-pyrido-[2,3-b][1,4]benzodiazepin6-on]						7,41 Mkg^-1	6,46 Mkg^-1	3.39	0.0251	0.0646	0.269
CN(CCC1CCCCCN1C)CC(=O)N1c2cc(Cl)ccc2C(=O)Nc2cccnc21 (centres unmarked) [C, 9-Chior-5,11-dihydro-11-[[[2-(1-methyl-hexahydro-1H-2-azepinyl)ethyl]methylamino]acetyl]-6H-pyrido[2,3-b][1,4]benzodiazepin-6-on-hydrochlorid]						7,5 Mkg^-1		3.02	0.055	0.191	0.234
Cc1ccc2c(c1)C(=O)Nc1cccnc1N2C(=O)CN(C)CCC1CCCCCN1C (centres unmarked) [D, 5,11-Dihydro-8-methyl-11-[[[2-(1-methyl-hexahydro-1H-2-azepinyl)ethyl]methylamino]acetyl]-6H-pyrido[2,3-b][1,4]benzodiazepin-6-on]						7,67 Mkg^-1		0.617	0.0525	0.135	0.347
CCN(CC)CC1CCCCN1CC(=O)N1c2ccccc2C(=O)Nc2cccnc21 (centres unmarked) [E, 11-[[2-[(Diethylamino)methyl]-1-piperidinyl]acetyl]-5,11-dihydro-6H-pyrido[2,3-b][1,4]-benzodiazepin-6-on, reference compound]						6,42 Mkg^-1		10			
